Results published in ChEMBL document CHEMBL5042473 (J Med Chem, 2022).
Blank lines part the entries; values can stand above or below the molecule they belong to.

What was measured:
[1] = target: Mitogen-activated protein kinase 14 (Homo sapiens, UniProt Q16539); test: Inhibition of human p38 MAPK alpha incubated for 1 hr by photometric method
[2] = Cytotoxicity against Balb/c mouse splenocytes assessed as metabolic activity at 100 nM incubated for 24 hrs by MTT assay relative to LPS-stimulated splenocytes; assay type: toxicity, cell-based, Splenocyte; settings: read-out: Activity
[3] = Metabolic stability in human liver microsomes assessed as parent compound remaining incubated for 120 mins; assay type: ADME, Microsome; settings: read-out: Stability
Splenocyte [4] = test: Cytotoxicity against Balb/c mouse splenocytes assessed as metabolic activity at 1 to 10 nM incubated for 24 hrs by MTT assay; assay type: toxicity, cell-based; settings: 0.01 µM, dose 1-10 nM
Splenocyte [5] = test: Antiinflammatory activity against LPS-stimulated Balb/c mouse splenocytes assessed as reduction in IL-6 at 1 nM incubated for 24 hrs by ELISA based method; assay type: functional; set-up: scale not given: the % may be the effect or the level left
Splenocyte [6] = test: Antiinflammatory activity against LPS-stimulated Balb/c mouse splenocytes assessed as reduction in IL-6 at 10 nM incubated for 24 hrs by ELISA based method; assay type: functional; set-up: scale not given: the % may be the effect or the level left
Splenocyte [7] = test: Antiinflammatory activity against LPS-stimulated Balb/c mouse splenocytes assessed as reduction in IL-6 at 100 nM incubated for 24 hrs by ELISA based method; assay type: functional; set-up: scale not given: the % may be the effect or the level left
Blood [8] = test: Antiinflammatory activity against LPS-stimulated C57BL/6 mouse whole blood assessed as reduction in TNF-alpha at 1 nM incubated for 24 hrs by ELISA based method; assay type: functional; set-up: scale not given: the % may be the effect or the level left
[9] = Drug concentration in mouse C57BL/6 brain at 0.4 mg/kg,po measured at 2 hrs by LC-MS/MS analysis; assay type: ADME, organism-based; settings: C57BL/6, mouse, read-out: Drug uptake
[10] = Ratio of drug concentration in mouse C57BL/6 brain to plasma at 0.4 mg/kg, po measured at 2 hrs by LC-MS/MS analysis; assay type: ADME, organism-based; settings: C57BL/6, mouse, brain and plasma
[11] = Drug concentration in mouse C57BL/6 heart at 0.4 mg/kg,po measured at 4 hrs by LC-MS/MS analysis; assay type: ADME, organism-based; settings: C57BL/6, mouse, read-out: Drug uptake
[12] = Drug concentration in mouse C57BL/6 liver at 0.4 mg/kg,po measured at 4 hrs by LC-MS/MS analysis; assay type: ADME, organism-based; settings: C57BL/6, mouse, read-out: Drug uptake
[13] = Drug concentration in mouse C57BL/6 kidney at 0.4 mg/kg,po measured at 4 hrs by LC-MS/MS analysis; assay type: ADME, organism-based; settings: C57BL/6, mouse, read-out: Drug uptake
[14] = Drug concentration in mouse C57BL/6 brain at 0.4 mg/kg,po measured at 4 hrs by LC-MS/MS analysis; assay type: ADME, organism-based; settings: C57BL/6, mouse, read-out: Drug uptake
hERG = hERG (Homo sapiens, UniProt Q12809); test: Inhibition of hERG at 10 uM by fluorimetric analysis relative to control; assay type: toxicity
CYP1A2 = target: T1, CYP1A2 (Homo sapiens, UniProt P05177); test: Inhibition of human recombinant CYP1A2 at 10 uM relative to control; assay type: ADME
T1 sequence (P05177 whole entry): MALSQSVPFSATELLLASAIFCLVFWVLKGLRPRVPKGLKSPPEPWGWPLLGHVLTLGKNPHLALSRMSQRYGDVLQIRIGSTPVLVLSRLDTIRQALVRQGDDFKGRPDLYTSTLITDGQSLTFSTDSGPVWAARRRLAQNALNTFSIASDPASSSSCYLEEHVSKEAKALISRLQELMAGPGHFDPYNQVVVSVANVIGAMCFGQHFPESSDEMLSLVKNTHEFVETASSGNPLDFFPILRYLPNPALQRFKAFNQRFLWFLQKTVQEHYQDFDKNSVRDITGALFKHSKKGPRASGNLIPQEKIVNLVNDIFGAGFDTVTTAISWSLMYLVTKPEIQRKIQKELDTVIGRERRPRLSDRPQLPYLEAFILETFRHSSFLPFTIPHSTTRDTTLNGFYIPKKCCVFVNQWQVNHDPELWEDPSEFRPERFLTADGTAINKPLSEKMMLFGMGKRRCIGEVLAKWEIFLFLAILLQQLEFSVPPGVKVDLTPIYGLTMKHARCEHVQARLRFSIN

CYP2C9 = CYP2C9 (Homo sapiens, UniProt P11712); test: Inhibition of human recombinant CYP2C9 at 10 uM relative to control; assay type: ADME
CYP2C19 = CYP2C19 (Homo sapiens, UniProt P33261); test: Inhibition of human recombinant CYP2C19 at 10 uM relative to control; assay type: ADME
CYP2D6 = CYP2D6 (Homo sapiens, UniProt P10635); test: Inhibition of human recombinant CYP2D6 at 10 uM relative to control; assay type: ADME
CYP3A4 = CYP3A4 (Homo sapiens, UniProt P08684); test: Inhibition of human recombinant CYP3A4 at 10 uM relative to control; assay type: ADME
[15] = Ratio of drug concentration in RjOrl:Swiss (CD-1) mouse brain to plasma at 10mg/kg, iv administered measured after 2 hrs by LC-MS/MS analysis; assay type: ADME, organism-based; settings: brain and plasma, read-out: BPR
[16] = Drug uptake in RjOrl:Swiss (CD-1) mouse brain at 10 mg/kg, iv administered measured after 2 hrs by LC-MS/MS analysis; assay type: ADME, organism-based; settings: read-out: Ct
Blood [17] = test: Antiinflammatory activity against LPS-stimulated C57BL/6 mouse whole blood assessed as reduction in IL-6 incubated for 24 hrs by ELISA based method; assay type: functional; set-up: scale not given: the % may be the effect or the level left; settings: dose 1-100 nM, at 1 to 100 nM
Blood [18] = test: Antiinflammatory activity against LPS-stimulated C57BL/6 mouse whole blood assessed as reduction in TNF-alpha at 10 nM incubated for 24 hrs by ELISA based method; assay type: functional; settings: C57BL/6, Blood
Blood [19] = test: Reduction in LPS-stimulated TNF-alpha release in human whole blood incubated for 15 mins by ELISA based method; settings: 0.25 h
[20] = Drug concentration in mouse C57BL/6 brain at 0.4 mg/kg,iv measured at 2 hrs by LC-MS/MS analysis; assay type: ADME, organism-based; settings: C57BL/6, mouse, read-out: Drug uptake
[21] = Drug uptake in mouse C57BL/6 brain at 0.4 mg/kg,iv measured upto 240 mins by LC-MS/MS analysis; assay type: ADME, organism-based; settings: in vivo, 4 h
[22] = Drug uptake in mouse C57BL/6 brain at 0.4 mg/kg,po measured upto 240 mins by LC-MS/MS analysis; assay type: ADME, organism-based; settings: in vivo, 4 h
[23] = Drug concentration in rat brain at 6 mg/kg, iv measured after 24 hrs by LC/MS/MS analysis; settings: in vivo
[24] = Drug concentration in rat plasma at 6 mg/kg, iv measured after 24 hrs by LC/MS/MS analysis
[25] = Ratio of drug concentration in rat brain to plasma; settings: brain and plasma
[26] = Drug concentration in rat brain at 1.5 mg/kg, po measured after 1 hrs by LC/MS/MS analysis; assay type: ADME, organism-based; settings: in vivo
[27] = Drug concentration in rat plasma at 1.5 mg/kg, po measured after 1 hrs by LC/MS/MS analysis; assay type: ADME, organism-based
[28] = Drug concentration in rat brain at 4.5 mg/kg, po measured after 1 hrs by LC/MS/MS analysis; assay type: ADME, organism-based; settings: in vivo
[29] = Drug concentration in rat plasma at 4.5 mg/kg, po measured after 1 hrs by LC/MS/MS analysis; assay type: ADME, organism-based

Chain of CYP2D6 (P10635 whole entry): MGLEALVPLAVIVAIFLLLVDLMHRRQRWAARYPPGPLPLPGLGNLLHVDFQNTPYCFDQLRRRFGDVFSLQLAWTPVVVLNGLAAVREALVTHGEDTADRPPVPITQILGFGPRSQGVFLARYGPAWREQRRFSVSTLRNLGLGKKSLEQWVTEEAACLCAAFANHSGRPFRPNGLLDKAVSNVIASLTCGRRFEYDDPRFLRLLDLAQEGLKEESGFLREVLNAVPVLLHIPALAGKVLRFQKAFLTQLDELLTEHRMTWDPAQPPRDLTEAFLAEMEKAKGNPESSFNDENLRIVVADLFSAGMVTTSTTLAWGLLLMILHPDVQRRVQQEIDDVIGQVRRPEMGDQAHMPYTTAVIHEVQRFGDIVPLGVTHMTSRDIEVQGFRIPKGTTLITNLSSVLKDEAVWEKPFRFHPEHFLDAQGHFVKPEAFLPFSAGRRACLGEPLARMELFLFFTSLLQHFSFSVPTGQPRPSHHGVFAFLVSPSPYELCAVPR
Chain of hERG (Q12809 whole entry): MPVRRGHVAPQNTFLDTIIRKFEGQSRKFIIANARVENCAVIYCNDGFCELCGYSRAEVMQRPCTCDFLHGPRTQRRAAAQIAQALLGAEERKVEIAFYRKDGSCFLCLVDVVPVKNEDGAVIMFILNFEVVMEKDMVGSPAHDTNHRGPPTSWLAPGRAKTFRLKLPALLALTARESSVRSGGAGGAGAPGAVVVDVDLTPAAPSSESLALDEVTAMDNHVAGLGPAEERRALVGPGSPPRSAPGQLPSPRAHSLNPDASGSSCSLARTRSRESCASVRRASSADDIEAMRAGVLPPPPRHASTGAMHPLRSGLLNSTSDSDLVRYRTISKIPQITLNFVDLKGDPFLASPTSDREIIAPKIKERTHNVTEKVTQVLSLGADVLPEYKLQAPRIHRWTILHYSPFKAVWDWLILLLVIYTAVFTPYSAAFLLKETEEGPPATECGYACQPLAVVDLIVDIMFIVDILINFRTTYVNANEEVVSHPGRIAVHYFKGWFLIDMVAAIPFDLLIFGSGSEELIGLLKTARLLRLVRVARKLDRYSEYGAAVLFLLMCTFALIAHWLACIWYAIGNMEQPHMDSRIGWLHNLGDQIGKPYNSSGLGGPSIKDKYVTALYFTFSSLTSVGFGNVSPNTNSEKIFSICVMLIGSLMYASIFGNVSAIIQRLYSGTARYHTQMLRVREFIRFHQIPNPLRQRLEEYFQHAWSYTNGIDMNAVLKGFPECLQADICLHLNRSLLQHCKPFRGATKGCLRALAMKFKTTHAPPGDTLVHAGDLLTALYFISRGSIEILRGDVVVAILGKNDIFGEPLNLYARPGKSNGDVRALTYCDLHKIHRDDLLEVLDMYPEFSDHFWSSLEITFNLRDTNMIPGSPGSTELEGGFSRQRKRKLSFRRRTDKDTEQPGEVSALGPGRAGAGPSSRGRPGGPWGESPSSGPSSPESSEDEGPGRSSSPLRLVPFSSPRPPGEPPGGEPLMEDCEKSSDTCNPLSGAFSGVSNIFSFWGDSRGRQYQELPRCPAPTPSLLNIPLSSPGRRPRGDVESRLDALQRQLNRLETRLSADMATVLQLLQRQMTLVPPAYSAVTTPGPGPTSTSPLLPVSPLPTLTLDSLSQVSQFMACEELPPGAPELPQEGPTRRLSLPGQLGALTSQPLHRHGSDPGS
Chain of Mitogen-activated protein kinase 14 (Q16539 whole entry): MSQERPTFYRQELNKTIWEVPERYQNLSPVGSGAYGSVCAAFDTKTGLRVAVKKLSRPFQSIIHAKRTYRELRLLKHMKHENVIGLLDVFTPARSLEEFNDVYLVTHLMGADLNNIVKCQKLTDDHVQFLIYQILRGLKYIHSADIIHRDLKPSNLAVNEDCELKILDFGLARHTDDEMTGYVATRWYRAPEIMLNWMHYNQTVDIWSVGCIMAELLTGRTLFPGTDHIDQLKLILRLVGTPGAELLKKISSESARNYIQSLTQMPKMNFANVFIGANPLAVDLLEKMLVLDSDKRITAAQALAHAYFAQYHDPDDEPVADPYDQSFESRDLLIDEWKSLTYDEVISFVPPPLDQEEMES
Chain of CYP3A4 (P08684 whole entry): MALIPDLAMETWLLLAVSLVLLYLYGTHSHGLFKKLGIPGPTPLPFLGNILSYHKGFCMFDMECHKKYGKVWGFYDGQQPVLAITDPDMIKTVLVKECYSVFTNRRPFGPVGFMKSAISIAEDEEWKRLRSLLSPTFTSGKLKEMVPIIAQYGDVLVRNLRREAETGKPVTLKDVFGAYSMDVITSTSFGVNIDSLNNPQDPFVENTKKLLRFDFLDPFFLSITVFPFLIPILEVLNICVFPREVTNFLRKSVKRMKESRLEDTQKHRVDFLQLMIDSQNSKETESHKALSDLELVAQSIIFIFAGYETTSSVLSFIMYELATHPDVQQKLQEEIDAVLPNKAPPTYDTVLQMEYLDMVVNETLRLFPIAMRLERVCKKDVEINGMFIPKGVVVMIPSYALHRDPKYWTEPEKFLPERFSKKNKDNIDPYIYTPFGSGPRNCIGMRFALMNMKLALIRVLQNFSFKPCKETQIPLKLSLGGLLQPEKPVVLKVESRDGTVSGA
Chain of CYP2C9 (P11712 whole entry): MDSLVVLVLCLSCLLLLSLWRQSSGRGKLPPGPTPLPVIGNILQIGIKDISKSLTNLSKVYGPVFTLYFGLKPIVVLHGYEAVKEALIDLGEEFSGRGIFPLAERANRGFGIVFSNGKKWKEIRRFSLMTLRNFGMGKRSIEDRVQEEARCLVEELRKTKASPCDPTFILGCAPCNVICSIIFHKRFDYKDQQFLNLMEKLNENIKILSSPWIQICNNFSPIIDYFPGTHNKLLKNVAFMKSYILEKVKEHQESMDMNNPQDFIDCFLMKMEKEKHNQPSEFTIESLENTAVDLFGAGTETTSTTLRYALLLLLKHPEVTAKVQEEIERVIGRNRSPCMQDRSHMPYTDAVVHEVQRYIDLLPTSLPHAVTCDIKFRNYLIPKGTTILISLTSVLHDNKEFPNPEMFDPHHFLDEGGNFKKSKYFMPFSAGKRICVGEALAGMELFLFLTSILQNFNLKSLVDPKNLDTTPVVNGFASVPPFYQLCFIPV
Chain of CYP2C19 (P33261 whole entry): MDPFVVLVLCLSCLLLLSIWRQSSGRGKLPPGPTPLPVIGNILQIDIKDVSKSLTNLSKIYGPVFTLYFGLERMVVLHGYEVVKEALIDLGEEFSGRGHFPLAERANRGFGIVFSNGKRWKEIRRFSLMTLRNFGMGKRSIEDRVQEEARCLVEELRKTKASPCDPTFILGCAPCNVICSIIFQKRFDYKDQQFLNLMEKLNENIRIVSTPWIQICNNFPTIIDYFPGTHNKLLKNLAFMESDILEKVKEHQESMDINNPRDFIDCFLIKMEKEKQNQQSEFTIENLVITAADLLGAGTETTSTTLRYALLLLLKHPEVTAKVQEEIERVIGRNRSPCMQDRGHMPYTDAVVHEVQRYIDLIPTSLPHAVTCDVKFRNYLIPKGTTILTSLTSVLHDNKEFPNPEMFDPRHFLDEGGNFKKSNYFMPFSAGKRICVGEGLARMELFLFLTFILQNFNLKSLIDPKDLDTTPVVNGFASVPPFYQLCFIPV

Compound: Nc1ccccc1Nc1ccc2c(c1)CCc1ccc(C(=O)NCCC(=O)O)cc1C2=O
IC50 [1]: 0.98 nM
viability at 24 h, 0.1 µM [2]: 66%
remaining at 2 h [3]: 99%
Activity (Splenocyte [4]): Non-Toxic
Activity (Splenocyte [5]): 138%
Activity (Splenocyte [6]): 118%
Activity (Splenocyte [7]): 29%
Activity (Blood [8]): 5%
concentration at 2 h [9]: 590 nM
Kp at 2 h [10]: 4.7
concentration at 4 h [11]: 120 nM
concentration at 4 h [12]: 330 nM
concentration at 4 h [13]: 380 nM
concentration at 4 h [14]: 540 nM
inhibition at 10 µM (hERG): 22.5%
inhibition at 10 µM (CYP1A2): 28.1%
inhibition at 10 µM (CYP2C9): 13.1%
inhibition at 10 µM (CYP2C19): 21.8%
inhibition at 10 µM (CYP2D6): 11.4%
inhibition at 10 µM (CYP3A4): 4.1%

Compound: O=C(O)CCNC(=O)c1ccc2c(c1)C(=O)c1ccc(Nc3ccc(F)cc3F)cc1CC2
IC50 [1]: 5.5 nM
viability at 24 h, 0.1 µM [2]: 66%
remaining at 2 h [3]: 97%
Kp at 2 h [15]: 1.25
Activity (Splenocyte [4]): Non-Toxic
Activity (Blood [8]): 5%
inhibition at 10 µM (hERG): 11.8%
inhibition at 10 µM (CYP1A2): 33.6%
inhibition at 10 µM (CYP2C9): 98.5%
inhibition at 10 µM (CYP2C19): 100%
inhibition at 10 µM (CYP2D6): 3%
inhibition at 10 µM (CYP3A4): 54.8%
concentration at 2 h [16]: 103 ng/g

Compound: COC(=O)CCNC(=O)c1ccc2c(c1)C(=O)c1ccc(Nc3ccc(F)cc3F)cc1CC2
IC50 [1]: 1.2 nM
viability at 24 h, 0.1 µM [2]: 66%
remaining at 2 h [3]: 0%
Activity (Splenocyte [4]): Non-Toxic
Activity (Blood [17]): 85%
inhibition at 10 µM (hERG): 59.9%
inhibition at 10 µM (CYP1A2): 27.3%
inhibition at 10 µM (CYP2C9): 99.4%
inhibition at 10 µM (CYP2C19): 100%
inhibition at 10 µM (CYP2D6): 73.7%
inhibition at 10 µM (CYP3A4): 68%
inhibition at 0.01 µM (Blood [18]): 50%

Compound: O=C(O)CCCNC(=O)c1ccc2c(c1)C(=O)c1ccc(Nc3ccc(F)cc3F)cc1CC2
IC50 [1]: 12 nM
viability at 24 h, 0.1 µM [2]: 66%
remaining at 2 h [3]: 99%
Kp at 2 h [15]: 4.38
Activity (Splenocyte [4]): Non-Toxic
Activity (Blood [17]): 71%
inhibition at 10 µM (hERG): 14.4%
inhibition at 10 µM (CYP1A2): 16.2%
inhibition at 10 µM (CYP2C9): 66%
inhibition at 10 µM (CYP2C19): 63.2%
inhibition at 10 µM (CYP2D6): 2%
inhibition at 10 µM (CYP3A4): 38.1%
concentration at 2 h [16]: 98.2 ng/g
inhibition at 0.01 µM (Blood [18]): 50%

Compound: COC(=O)CCCNC(=O)c1ccc2c(c1)C(=O)c1ccc(Nc3ccc(F)cc3F)cc1CC2
IC50 [1]: 3.4 nM
viability at 24 h, 0.1 µM [2]: 66%
Activity (Splenocyte [4]): Non-Toxic
Activity (Blood [17]): 64%
IC50 (Blood [19]): 64 nM
inhibition at 10 µM (hERG): 49.7%
inhibition at 10 µM (CYP1A2): 11.6%
inhibition at 10 µM (CYP2C9): 68.4%
inhibition at 10 µM (CYP2C19): 60.4%
inhibition at 10 µM (CYP2D6): 3%
inhibition at 10 µM (CYP3A4): 34.9%
inhibition at 0.01 µM (Blood [18]): 50%

Compound: COC(=O)CCNC(=O)c1ccc2c(c1)C(=O)c1ccc(Nc3ccccc3N)cc1CC2
IC50 [1]: 29 nM
viability at 24 h, 0.1 µM [2]: 66%
Activity (Splenocyte [4]): Non-Toxic
Activity (Blood [17]): 81%
inhibition at 0.01 µM (Blood [18]): 50%

IC50 [1]: 5.7 nM
remaining at 2 h [3]: 3%
concentration at 2 h [20]: 20 nM
concentration at 2 h [9]: 20 nM
Compound: CNC(=O)c1ccc2c(c1)C(=O)c1ccc(Nc3ccccc3N)cc1CC2
viability at 24 h, 0.1 µM [2]: 66%
Activity (Splenocyte [4]): Non-Toxic

Compound: O=C(Nc1ccccc1)c1ccc2c(c1)C(=O)c1ccc(Nc3ccc(F)cc3F)cc1CC2
IC50 [1]: 2.4 nM
viability at 24 h, 0.1 µM [2]: 66%
Activity (Splenocyte [4]): Non-Toxic
Activity (Splenocyte [7]): 51%
Activity (Blood [8]): 5%
Drug uptake [21]: Not Active
Drug uptake [22]: Not Active

Compound: CN1CCN(c2cc(-c3ccncc3)c(-c3ccc4ccccc4c3)nn2)CC1 [MW-150]
Ct [23]: 1030 nmol/kg
concentration at 24 h [24]: 390 ng/mL

Compound: O=c1ncn2nc(Sc3ccc(F)cc3F)ccc2c1-c1c(Cl)cccc1Cl [NEFLAMAPIMOD]
Kp [25]: 1.7
Ct [26]: 129 nmol/kg
concentration at 1 h [27]: 33 ng/mL
Ct [28]: 359 nmol/kg
concentration at 1 h [29]: 92 ng/mL
